# Starred links: 1 amine or outer side, 2 acyl side, 3 side chain; linkers in the order of their positions; H or OH if unused. Non-standard residues stand in square brackets, D forms with d. Residues, ends and D or L forms follow the SMILES beside them. dPhe(2,4-Cl2) = N[C@H](Cc1ccc(Cl)cc1Cl)C(=O)O; Dip = N[C@H](C(=O)O)C(c1ccccc1)c1ccccc1; Ala(2-furyl) = N[C@@H](Cc1ccco1)C(=O)O; Pro(4,4-F2) = O=C(O)[C@@H]1CC(F)(F)CN1; Arg(Me) = CNC(=N)NCCC[C@H](N)C(=O)O; Hyp = O=C(O)[C@@H]1C[C@@H](O)CN1; 2Pal = N[C@@H](Cc1ccccn1)C(=O)O; 3Pal = N[C@@H](Cc1cccnc1)C(=O)O; azaPro = O=C(N1CCCN1[*:1])[*:2]; 2Thi = N[C@@H](Cc1cccs1)C(=O)O; dPip = O=C(O)[C@H]1CCCCN1; Ac6c = NC1(C(=O)O)CCCCC1; Aze = O=C(O)[C@@H]1CCN1; azaGly = NNC(=O)O
# Molecular target: T1, human kiss1 receptor (GPR54) (Homo sapiens, UniProt Q969F8)
# T1 construct: host or cells: NFAT-bla CHO-K1 cells (Chinese hamster ovary), purchased recombinant cell line
# T1 sequence (Q969F8 whole entry): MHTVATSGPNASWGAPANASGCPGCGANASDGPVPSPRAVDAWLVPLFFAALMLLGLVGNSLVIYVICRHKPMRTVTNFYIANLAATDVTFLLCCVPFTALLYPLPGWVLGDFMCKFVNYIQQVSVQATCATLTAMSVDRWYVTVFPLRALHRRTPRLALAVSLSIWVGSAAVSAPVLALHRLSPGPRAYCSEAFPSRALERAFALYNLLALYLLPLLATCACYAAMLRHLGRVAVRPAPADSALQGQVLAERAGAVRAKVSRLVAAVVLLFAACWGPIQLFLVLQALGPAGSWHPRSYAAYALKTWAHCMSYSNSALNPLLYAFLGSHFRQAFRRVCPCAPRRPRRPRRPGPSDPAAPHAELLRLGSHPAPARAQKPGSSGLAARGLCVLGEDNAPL
# Assay: Kiss1 receptor (GPR54) binding activity of agonists, FRET detection in NFAT-bla CHO-K1 cells
# Format: cell-based
# Conditions: GPR54; measured according to the method of effect Embodiment 1; preliminary data; read-out: Preliminary measurement data (GPR54) EC50
row,EC50,Structure (SMILES)
1,1.19 nM,"CNC(=N)NCCC[C@H](NC(=O)[C@H](CC(C)C)NC(=O)[C@@H]1CCN1C(=O)[C@H](Cc1ccccc1)NC(=O)[C@H](Cc1ccco1)NC(=O)[C@H](CC(N)=O)NC(=O)[C@@H]1C[C@@H](O)CN1C(=O)[C@@H](Cc1ccc(O)cc1)NC(C)=O)C(=O)N[C@@H](Cc1c[nH]c2ccccc12)C(N)=O [YA-203, Ac-(D-Tyr)-Hyp-Asn-2Fua-Phe-Aze-Leu-Arg(Me)-Trp-NH2] (Ac-[dY][Hyp]N[Ala(2-furyl)]F[Aze]L[Arg(Me)]W-NH2)"
2,0.18 nM,"CNC(=N)NCCC[C@H](NC(=O)[C@H](CC(C)C)NC(=O)NNC(=O)[C@H](Cc1ccccc1)NC(=O)[C@@H](NC(=O)[C@H](CC(N)=O)NC(=O)[C@@H]1C[C@@H](O)CN1C(=O)[C@H](Cc1ccccn1)NC(C)=O)[C@@H](C)O)C(=O)N[C@@H](Cc1c[nH]c2ccccc12)C(N)=O [YA-68, Ac-2Pal-Hyp-Asn-Thr-Phe-azaGly-Leu-Arg(Me)-Trp-NH2] (Ac-[2Pal][Hyp]NTF[azaGly]L[Arg(Me)]W-NH2)"
3,0.19 nM,"CNC(=N)NCCC[C@H](NC(=O)[C@H](CC(C)C)NC(=O)NNC(=O)[C@H](Cc1ccccc1)NC(=O)[C@@H](NC(=O)[C@H](CC(N)=O)NC(=O)[C@@H]1C[C@@H](O)CN1C(=O)[C@@H](NC(C)=O)C(c1ccccc1)c1ccccc1)[C@@H](C)O)C(=O)N[C@@H](Cc1c[nH]c2ccccc12)C(N)=O [YA-132, Ac-Ala(dip)-Hyp-Asn-Thr-Phe-azaGly-Leu-Arg(Me)-Trp-NH2] (Ac-[Dip][Hyp]NTF[azaGly]L[Arg(Me)]W-NH2)"
4,0.03 nM,"CNC(=N)NCCC[C@H](NC(=O)C(CC(C)C)C(=S)NCNC(=O)[C@H](Cc1ccccc1)NC(=O)[C@@H](NC(=O)[C@H](CC(N)=O)NC(=O)[C@@H]1C[C@@H](O)CN1C(=O)[C@@H](Cc1ccc(O)cc1)NC(C)=O)[C@@H](C)O)C(=O)N[C@@H](Cc1c[nH]c2ccccc12)C(N)=O (single isomer, unassigned) [YA-254, Ac-(D-Tyr)-Hyp-Asn-Thr-Phe-ψ(NHCS)Gly-Leu-Arg(Me)-Trp-NH2]"
5,0.65 nM,"CNC(=N)NCCC[C@H](NC(=O)[C@H](CC(C)C)NC(=O)C1(NC(=O)[C@H](Cc2ccccc2)NC(=O)[C@@H](NC(=O)[C@H](CC(N)=O)NC(=O)[C@@H]2CC(F)(F)CN2C(=O)[C@@H](Cc2ccc(O)cc2)NC(C)=O)[C@@H](C)O)CCCCC1)C(=O)N[C@@H](Cc1c[nH]c2ccccc12)C(N)=O [YA-251, Ac-D-Tyr-Pro(diF)-Asn-Thr-Phe-A6c-Leu-Arg(Me)-Trp-NH2] (Ac-[dY][Pro(4,4-F2)]NTF[Ac6c]L[Arg(Me)]W-NH2)"
6,1.89 nM,"CNC(=N)NCCC[C@H](NC(=O)[C@H](CC(C)C)NC(=O)[C@H]1CCCCN1C(=O)[C@H](Cc1ccccc1)NC(=O)[C@@H](NC(=O)[C@H](CC(N)=O)NC(=O)[C@@H]1C[C@@H](O)CN1C(=O)[C@@H](Cc1ccc(O)cc1)NC(C)=O)[C@@H](C)O)C(=O)N[C@@H](Cc1c[nH]c2ccccc12)C(N)=O [YA-227, Ac-(D-Tyr)-Hyp-Asn-Thr-Phe-(R-Pip)-Leu-Arg(Me)-Trp-NH2] (Ac-[dY][Hyp]NTF[dPip]L[Arg(Me)]W-NH2)"
7,25.4 nM,"CNC(=N)NCCC[C@H](NC(=O)[C@H](CC(C)C)NC(=O)C1(NC(=O)[C@H](Cc2ccccc2)NC(=O)[C@@H](NC(=O)[C@H](CC(N)=O)NC(=O)N2CCCN2C(=O)[C@@H](Cc2ccc(Cl)cc2Cl)NC(C)=O)[C@@H](C)O)CCCCC1)C(=O)N[C@@H](Cc1c[nH]c2ccccc12)C(N)=O [YA-200, Ac-D-Phe(2,4-DiCl)-azaPro-Asn-Thr-Phe-A6c-Leu-Arg(Me)-Trp-NH2] (Ac-[dPhe(2,4-Cl2)][azaPro]NTF[Ac6c]L[Arg(Me)]W-NH2)"
8,3.6 nM,"CNC(=N)NCCC[C@H](NC(=O)[C@H](CC(C)C)NC(=O)C1(NC(=O)[C@H](Cc2ccccc2)NC(=O)[C@@H](NC(=O)[C@H](CC(N)=O)NC(=O)[C@H](Cc2cccs2)NC(=O)[C@@H](Cc2ccc(Cl)cc2Cl)NC(C)=O)[C@@H](C)O)CCCCC1)C(=O)N[C@@H](Cc1c[nH]c2ccccc12)C(N)=O [YA-206, Ac-[D-Phe(2,4-DiCl)]-Thi-Asn-Thr-Phe-A6c-Leu-Arg(Me)-Trp-NH2] (Ac-[dPhe(2,4-Cl2)][2Thi]NTF[Ac6c]L[Arg(Me)]W-NH2)"
9,0.3 nM,"CNC(=N)NCCC[C@H](NC(=O)[C@H](CC(C)C)NC(=O)NNC(=O)[C@H](Cc1ccccc1)NC(=O)[C@@H](NC(=O)[C@H](CC(N)=O)NC(=O)[C@@H]1C[C@@H](O)CN1C(=O)[C@H](Cc1cccnc1)NC(C)=O)[C@@H](C)O)C(=O)N[C@@H](Cc1c[nH]c2ccccc12)C(N)=O [YA-69, Ac-3Pal-Hyp-Asn-Thr-Phe-azaGly-Leu-Arg(Me)-Trp-NH2] (Ac-[3Pal][Hyp]NTF[azaGly]L[Arg(Me)]W-NH2)"

# From US11427615B2, “Peptide compound and application thereof, and composition containing peptide compound” (XDCEXPLORER (SHANGHAI) CO., LTD., priority 2017, dated 2022)
